One assay relates to MCF-7 cells. Put plainly: Breast Cancer Cell Viability Assay (MCF-7, CellTiter-Glo). Type of assay: cell-based. The following applies: 5 days' compound exposure; for IC50: Homo sapiens, MCF7, 120 h. The method, then:
MCF-7 cells were adjusted to a concentration of 20,000 cells per mL in RPMI containing 10% FBS and 20 mM HEPES. 16 microliters of the cell suspension (320 cells) was added to each well of a 384 well plate, and the cells were incubated overnight to allow the cells to adhere. The following day an eleven point, serial semilog dilution of each compound was added to the cells in 16 μL at a final concentration ranging from 0.3-0.000003 μM. After 5 days' compound exposure, 16 μL of CellTiter-GLo (Promega, Madison Wis.) was added to the cells the relative luminescence units (RLUs) of each well was determined CellTiter-Glo added to 32 μL of medium without cells was used to obtain a background value. The Percent viability of each sample was determined as follows: (RLU sample-RLU background/RLU untreated cells-RLU background)×100=% viability.
On the technique in general: Cellular ATP, detected with luciferase, serves as a proxy for viable cell number.

A further assay addresses T1, ER-α (Homo sapiens, UniProt P03372).
T1 sequence (P03372 1-595): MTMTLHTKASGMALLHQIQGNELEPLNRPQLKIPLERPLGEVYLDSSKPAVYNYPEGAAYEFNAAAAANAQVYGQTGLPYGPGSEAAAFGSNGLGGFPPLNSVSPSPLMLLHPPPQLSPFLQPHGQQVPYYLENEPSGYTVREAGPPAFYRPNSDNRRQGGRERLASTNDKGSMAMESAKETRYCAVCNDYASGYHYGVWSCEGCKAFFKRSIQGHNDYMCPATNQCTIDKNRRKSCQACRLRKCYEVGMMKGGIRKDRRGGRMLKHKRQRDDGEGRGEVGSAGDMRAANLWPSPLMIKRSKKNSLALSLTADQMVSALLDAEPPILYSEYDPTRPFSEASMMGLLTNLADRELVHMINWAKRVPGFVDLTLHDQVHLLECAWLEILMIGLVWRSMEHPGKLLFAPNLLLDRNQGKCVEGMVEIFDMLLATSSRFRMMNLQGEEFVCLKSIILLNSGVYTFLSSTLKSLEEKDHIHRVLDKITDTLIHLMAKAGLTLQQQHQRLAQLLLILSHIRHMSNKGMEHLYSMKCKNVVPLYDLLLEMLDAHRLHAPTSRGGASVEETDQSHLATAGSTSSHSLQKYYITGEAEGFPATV
Put plainly: Breast Cancer Cell ER-α In Cell Western Assay (SP1). Type of assay: cell-based. Conditions: MCF-7 cells, SP1 antibody, 4 or 24 hr post compound addition; for Emax: MCF7, read-out: ER-α In Cell Western Assay (SP1) Max Response; for DC50: read-out: ER-α In Cell Western Assay (SP1) IC50. The method, then: MCF-7 cells were adjusted to a concentration of 200,000 cells per mL in RPMI containing 10% charcoal-stripped FBS and 20 mM HEPES. 16 microliters of the cell suspension (3200 cells) was added to each well of a poly-D-lysine 384 well plate, and the cells were incubated overnight to allow the cells to adhere. The following day an eleven point, serial semilog dilution of each compound was added to the cells in 16 μL at a final concentration ranging from 0.3-0.000003 μM. At 4 or 24 hr post compound addition, the cells were fixed (10% formalin in PBS) for 20 minutes. Cells were permeablized in PBS 0.1% Triton and blocked with LICOR blocking buffer (50 μL1/well, 90′). The wells were then incubated overnight at 4° C. with SP1 rabbit monoclonal Ab (Thermo Scientific) diluted 1:1000 in LICOR blocking buffer/0.1% Tween-20. Wells which were treated with blocking buffer with Tween but no antibody were used as a background control. Wells were washed with 0.1% Tween-20/PBS and then incubated in goat anti-rabbit IRDye™ 800CW (LICOR Inc.; 1:1000) and DRAQ5 DNA dye (1:2000 for 2 mM stock) diluted in LICOR blocking buffer containing 0.1% Tween-20 and 0.01% SDS for 60 minutes. Cells were washed (50 μl/well, 5′ each) in 0.1% Tween-20/PBS. Plates were scanned on a LICOR Odyssey infrared imaging system. Integrated intensities in the 800 nm channel and 700 nm channel were measured to determine levels of ER and DNA respectively. Percent ER levels were determined as follows: (Integrated intensity 800 nm sample/integrated intensity 700 nm sample)/(Integrated intensity 800 nm untreated cells/integrated intensity 700 nm untreated cells)×100=% ER levels.

For orientation: IC50 means the concentration at which inhibition is half-maximal. A higher IC50 goes with lower potency. For `CCOC(=O)/C=C/c1ccc(/C(=C(/CC)c2ccccc2)c2ccc3[nH]ncc3c2)cc1` [Compound 1, (E)-Ethyl 3-(4-((E)-1-(1H-indazol-5-yl)-2-phenylbut-1-en-1-yl)phenyl)acrylate], in the assay with MCF-7 cells, the “MCF7 Viability Assay Max Response” value is reported as “+ (+ = a single % value < 40%)” and the IC50 is no more than 100 nM. At ER-α, the Emax is no less than 40% and the DC50 was no more than 100 nM.
With `CC/C(=C(/c1ccc(/C=C/C(=O)O)cc1)c1ccc2[nH]ncc2c1)c1ccccc1` [Compound 2, (E)-3-(4-((E)-1-(1H-Indazol-5-yl)-2-phenylbut-1-en-1-yl)phenyl)acrylic acid], in the assay with MCF-7 cells, the “MCF7 Viability Assay Max Response” value is “++ (++ = a single % value ≧ 40%)” and the IC50 was no more than 100 nM. For the same compound, the Emax on ER-α was no less than 40%.
For `CC/C(=C(/c1ccc(/C=C/C(=O)O)cc1)c1ccc2[nH]ncc2c1)c1ccc(F)cc1` [Compound 3, (E)-3-(4-((E)-2-(4-Fluorophenyl)-1-(1H-indazol-5-yl)but-1-en-1-yl)phenyl)acrylic acid], in the assay on MCF-7 cells, the “MCF7 Viability Assay Max Response” value was “++ (++ = a single % value ≧ 40%)” and the IC50 is no more than 100 nM. Besides, at ER-α, the Emax is no less than 40% and the DC50 was no more than 100 nM.
For `CC/C(=C(/c1ccc(/C=C/C(=O)O)cc1)c1ccc2[nH]ncc2c1)c1ccc(Cl)cc1` [Compound 4, (E)-3-(4-((E)-2-(4-Chlorophenyl)-1-(1H-indazol-5-yl)but-1-en-1-yl)phenyl)acrylic acid], in the assay on MCF-7 cells, the “MCF7 Viability Assay Max Response” value was “++ (++ = a single % value ≧ 40%)” and the IC50 is no more than 100 nM. In addition, the Emax on ER-α was no less than 40%.
As for `CC/C(=C(/c1ccc(/C=C/C(=O)O)cc1)c1ccc2[nH]ncc2c1)c1cccc(OC)c1` [Compound 5, (E)-3-(4-((E)-1-(1H-indazol-5-yl)-2-(3-methoxyphenyl)but-1-en-1-yl)phenyl)acrylic acid], in the assay with MCF-7 cells, the “MCF7 Viability Assay Max Response” value is reported as “++ (++ = a single % value ≧ 40%)” and the IC50 was no more than 100 nM. Moreover, on ER-α, the Emax is no less than 40% and the DC50 was no more than 100 nM.
For `CC/C(=C(/c1ccc(/C=C/C(=O)O)cc1)c1ccc2[nH]ncc2c1)c1cccc(CO)c1` [Compound 6, (E)-3-(4-((E)-2-(3-(Hydroxymethyl)phenyl)-1-(1H-indazol-5-yl)but-1-en-1-yl)phenyl)acrylic acid], in the assay on MCF-7 cells, the “MCF7 Viability Assay Max Response” value was “++ (++ = a single % value ≧ 40%)” and the half-inhibitory concentration (IC50) was greater than 100 nM. For the same compound, at ER-α, the Emax is no less than 40% and the DC50 was no more than 100 nM.
Consider `CC/C(=C(/c1ccc(/C=C/C(=O)O)cc1)c1ccc2[nH]ncc2c1)c1ccc(CO)cc1` [Compound 7, (E)-3-(4-((E)-2-(4-(Hydroxymethyl)phenyl)-1-(1H-indazol-5-yl)but-1-en-1-yl)phenyl)acrylic acid], for which, in the assay with MCF-7 cells, the “MCF7 Viability Assay Max Response” value was “++ (++ = a single % value ≧ 40%)” and the IC50 was no more than 100 nM. On ER-α, the Emax is no less than 40% and the DC50 was no more than 100 nM.
Consider `CC/C(=C(/c1ccc(/C=C/C(=O)O)cc1)c1ccc2[nH]ncc2c1)c1ccccc1CO` [Compound 8, (E)-3-(4-((E)-2-(2-(Hydroxymethyl)phenyl)-1-(1H-indazol-5-yl)but-1-en-1-yl)phenyl)acrylic acid], for which, in the assay on MCF-7 cells, the “MCF7 Viability Assay Max Response” value was “++ (++ = a single % value ≧ 40%)” and the IC50 is greater than 100 nM. In addition, on ER-α, the Emax is no less than 40% and the DC50 was no more than 100 nM.
On to `CC/C(=C(/c1ccc(/C=C/C(=O)O)cc1)c1ccc2[nH]ncc2c1)c1ccccc1C` [Compound 9, (E)-3-(4-((E)-1-(1H-Indazol-5-yl)-2-(o-tolyl)but-1-en-1-yl)phenyl)acrylic acid], for which, in the assay with MCF-7 cells, the “MCF7 Viability Assay Max Response” value was “++ (++ = a single % value ≧ 40%)” and the IC50 was no more than 100 nM. For the same compound, the Emax on ER-α is no less than 40%.
For the compound `CC/C(=C(/c1ccc(/C=C/C(=O)O)cc1)c1ccc2[nH]ncc2c1)c1cccc(C)c1` [Compound 10, (E)-3-(4-((E)-1-(1H-Indazol-5-yl)-2-(m-tolyl)but-1-en-1-yl)phenyl)acrylic acid], in the assay on MCF-7 cells, the “MCF7 Viability Assay Max Response” value was “++ (++ = a single % value ≧ 40%)” and the IC50 was no more than 100 nM. In addition, at ER-α, the Emax was no less than 40% and the DC50 was no more than 100 nM.
On to `CC/C(=C(/c1ccc(/C=C/C(=O)O)cc1)c1ccc2[nH]ncc2c1)c1ccc(C)cc1` [Compound 11, (E)-3-(4-((E)-1-(1H-Indazol-5-yl)-2-(p-tolyl)but-1-en-1-yl)phenyl)acrylic acid], for which, in the assay with MCF-7 cells, the “MCF7 Viability Assay Max Response” value is given as “++ (++ = a single % value ≧ 40%)” and the IC50 is no more than 100 nM. At ER-α, the Emax is no less than 40% and the DC50 is no more than 100 nM.
In the case of `CC/C(=C(/c1ccc(/C=C/C(=O)O)cc1)c1ccc2[nH]ncc2c1)c1ccccc1OC` [Compound 12, (E)-3-(4-((E)-1-(1H-Indazol-5-yl)-2-(2-methoxyphenyl)but-1-en-1-yl)phenyl)acrylic acid], in the assay with MCF-7 cells, the “MCF7 Viability Assay Max Response” value is listed as “++ (++ = a single % value ≧ 40%)” and the IC50 is no more than 100 nM. Besides, the Emax at ER-α was no less than 40%.
As for `CC/C(=C(/c1ccc(/C=C/C(=O)O)cc1)c1ccc2[nH]ncc2c1)c1ccc(OC)cc1` [Compound 13, (E)-3-(4-((E)-1-(1H-Indazol-5-yl)-2-(4-methoxyphenyl)but-1-en-1-yl)phenyl)acrylic acid], in the assay with MCF-7 cells, the “MCF7 Viability Assay Max Response” value was “++ (++ = a single % value ≧ 40%)” and the IC50 is no more than 100 nM. In addition, at ER-α, the Emax was no less than 40% and the DC50 is no more than 100 nM.
As for `CCOC(=O)/C=C/c1ccc(/C(=C(/CC)c2ccccc2OC)c2ccc3[nH]ncc3c2)cc1` [Compound 91, (E)-ethyl 3-(4-((E)-1-(1H-indazol-5-yl)-2-(2-methoxyphenyl)but-1-en-1-yl)phenyl)acrylate], in the assay with MCF-7 cells, the “MCF7 Viability Assay Max Response” value was “+ (+ = a single % value < 40%)” and the IC50 is no more than 100 nM.
For `CCOC(=O)/C=C/c1ccc(/C(=C(/CC)c2ccc(OC)cc2)c2ccc3[nH]ncc3c2)cc1` [Compound 92, (E)-Ethyl 3-(4-((E)-1-(1H-Indazol-5-yl)-2-(4-methoxyphenyl)but-1-en-1-yl)phenyl)acrylate] the same measures were “+ (+ = a single % value < 40%)” and no more than 100 nM.
For `CC/C(=C(/c1ccc(/C=C/C(=O)O)cc1)c1ccc2[nH]ncc2c1)c1ccc(F)cc1Cl` [Compound 111, (E)-3-(4-((E)-2-(2-Chloro-4-fluorophenyl)-1-(1H-indazol-5-yl)but-1-en-1-yl)phenyl)acrylic acid] the same measures were “++ (++ = a single % value ≧ 40%)” and no more than 100 nM.
With `[2H]C([2H])([2H])C([2H])([2H])/C(=C(/c1ccc(/C=C/C(=O)O)cc1)c1ccc2[nH]ncc2c1)c1ccc(F)cc1Cl` [Compound 136, (E)-3-(4-((E)-2-(2-Chloro-4-fluorophenyl)-3,3,4,4,4-pentadeutero-1-(1H-indazol-5-yl)but-1-en-1-yl)phenyl)acrylic acid], in the assay with MCF-7 cells, the “MCF7 Viability Assay Max Response” value is given as “++ (++ = a single % value ≧ 40%)” and the IC50 is no more than 100 nM.

For the origin of these results see US8455534B2, “Estrogen receptor modulators and uses thereof” (Aragon Pharmaceuticals, Inc., priority 2010, dated 2013).
